{"source": "patent US11185075B2", "about": "“Herbicidal phenyltriazolinones” (BASF SE, priority 2016, dated 2021)", "format_in_all_cases": "in vivo", "key": {"[1]": {"tested_on": "Amaranthus retroflexus", "experiment": "greenhouse pre-emergence herbicidal test", "conditions": "16 g/ha, scale from 0 to 100", "text": "(§1) The seeds of the test plants were sown separately for each species. For the pre-emergence treatment, the active ingredients, which had been suspended or emulsified in water, were applied directly after sowing by means of finely distributing nozzles. The containers were irrigated gently to promote germination and growth and subsequently covered with transparent plastic hoods until the plants had rooted. This cover caused uniform germination of the test plants, unless this had been impaired by the active ingredients. Depending on the species, the plants were kept at 10-25° C. or 20-35° C., respectively. The test period extended over 2 to 4 weeks. During this time, the plants were tended, and their response to the individual treatments was evaluated. Evaluation was carried out using a scale from 0 to 100. 100 means no emergence of the plants, or complete destruction of at least the aerial moieties, and 0 means no damage, or normal course of growth. A good herbicidal activity is given at values of at least 70 and a very good herbicidal activity is given at values of at least 85."}, "[2]": {"tested_on": "Setaria faberi", "experiment": "greenhouse pre-emergence herbicidal test", "conditions": "16 g/ha, scale from 0 to 100", "text": "as §1"}, "[3]": {"tested_on": "Avena fatua", "experiment": "greenhouse post-emergence herbicidal test", "conditions": "16 g/ha, scale from 0 to 100", "text": "(§2) The seeds of the test plants were sown separately for each species. For the post-emergence treatment, the test plants were first grown to a height of 3 to 15 cm, depending on the plant habit, and only then treated with the active ingredients which had been suspended or emulsified in water. For this purpose, the test plants were either sown directly and grown in the same containers, or they were first grown separately as seedlings and transplanted into the test containers a few days prior to treatment. Depending on the species, the plants were kept at 10-25° C. or 20-35° C., respectively. The test period extended over 2 to 4 weeks. During this time, the plants were tended, and their response to the individual treatments was evaluated. Evaluation was carried out using a scale from 0 to 100. 100 means no emergence of the plants, or complete destruction of at least the aerial moieties, and 0 means no damage, or normal course of growth. A good herbicidal activity is given at values of at least 70 and a very good herbicidal activity is given at values of at least 85."}, "[4]": {"tested_on": "Alopecurus myosuroides", "experiment": "greenhouse post-emergence herbicidal test", "conditions": "scale from 0 to 100", "text": "as §2"}, "[5]": {"tested_on": "Lolium multiflorum", "experiment": "greenhouse post-emergence herbicidal test", "conditions": "4 g/ha, scale from 0 to 100", "text": "as §2"}}}
{"molecule": "CCOC(=O)COc1cccc(Oc2cc(-n3nc(C)n(C(F)F)c3=O)c(F)cc2Cl)c1", "note": "[compound A]", "values": [{"measurement": "damages, Amaranthus retroflexus", "setting": "[1]", "value": 45}, {"measurement": "damages, Setaria faberi", "setting": "[2]", "value": 0}, {"measurement": "damages, Avena fatua", "setting": "[3]", "value": 20}, {"measurement": "damages, Alopecurus myosuroides", "setting": "[4]; 16 g/ha", "value": 55}]}
{"molecule": "CCOC(=O)COc1ccccc1Oc1cc(-n2nc(C)n(C(F)F)c2=O)c(F)cc1Cl", "note": "[Example 3, Ethyl 2-[2-[2-chloro-5-[4-(difluoromethyl)-3-methyl-5-oxo-1,2,4-triazol-1-yl]-4-fluoro-phenoxy]phenoxy]acetate]", "values": [{"measurement": "damages, Amaranthus retroflexus", "setting": "[1]", "value": 85}, {"measurement": "damages, Setaria faberi", "setting": "[2]", "value": 85}, {"measurement": "damages, Avena fatua", "setting": "[3]", "value": 70}, {"measurement": "damages, Alopecurus myosuroides", "setting": "[4]; 4 g/ha", "value": 70}, {"measurement": "damages, Alopecurus myosuroides", "setting": "[4]; 16 g/ha", "value": 95}, {"measurement": "damages, Lolium multiflorum", "setting": "[5]", "value": 90}]}
{"molecule": "CCOC(=O)COc1ccc(Oc2cc(-n3nc(C)n(C(F)F)c3=O)c(F)cc2Cl)cc1", "note": "[compound B]", "values": [{"measurement": "damages, Amaranthus retroflexus", "setting": "[1]", "value": 45}, {"measurement": "damages, Setaria faberi", "setting": "[2]", "value": 0}, {"measurement": "damages, Alopecurus myosuroides", "setting": "[4]; 4 g/ha", "value": 30}, {"measurement": "damages, Lolium multiflorum", "setting": "[5]", "value": 70}]}
